This passage reports IC50 results from patent US5403850A, “Derivatives of P-substituted phenyl ester of pivalic acid” (Ono Pharmaceutical Co., Ltd., priority 1988, dated 1995).

Where a name gives a salt, the structure may show the parent alone.

The assay has as its target T1, elastase from human neutrophil (Homo sapiens, UniProt P08246).
T1 construct: elastase from human neutrophil; from tissue; host or cells: human neutrophil
T1 sequence (P08246 30-247 limits assumed): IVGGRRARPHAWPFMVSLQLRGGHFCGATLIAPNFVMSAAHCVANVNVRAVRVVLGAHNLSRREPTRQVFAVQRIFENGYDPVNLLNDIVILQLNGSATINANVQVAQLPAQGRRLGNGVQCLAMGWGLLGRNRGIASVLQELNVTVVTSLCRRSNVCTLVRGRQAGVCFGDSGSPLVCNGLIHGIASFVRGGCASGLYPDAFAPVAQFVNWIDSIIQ
Nature of the assay: Inhibitory effect on elastase (spectrophotometric, Suc-Ala-Pro-Ala-pNA substrate). The conditions noted are these: 1 mM Suc-Ala-Pro-Ala-pNA, tris-hydrochloric acid pH 8.0, 37° C. for 30 minutes, absorbance 405 nm. It is filed as biochemical. How it is done: The reaction mixture consisted of 1 mM Suc-Ala-Pro-Ala-pNA (dissolving in N-methylpyrrolidone to the concentration of 100 mM, and then adding 1/100 amount of the solution to the reaction mixture.), 0.1 M buffer solution of tris-hydrochloric acid (pH 8.0), 0.2 M sodium chloride aqueous solution, the sample solution of various concentrations and enzyme solution in a final volume of 1.0 ml was incubated at 37° C. for 30 minutes.
Inhibition percentage of the test compounds was calculated by the following equation: [formula]
One may read the IC50 as the midpoint of a concentration-inhibition curve. Read a low IC50 as higher potency. As to `Cc1cc(S(=O)(=O)Nc2ccccc2OCCCC(=O)O)ccc1OC(=O)C(C)(C)C` [2(51), 2-methyl-4-[N-(o-carboxypropoxy-phenyl)sulfamoyl]phenyl ester of pivalic acid], the half-maximal inhibitory concentration (IC50) amounted to 640 nM.
As to `CC(C)(C)C(=O)Oc1ccc(S(=O)(=O)n2ccnc2)cc1` [1(12), p-[(1-imidazolyl)sulfonyl]phenyl ester of pivalic acid], half-maximal inhibition (IC50) was put at 50 nM.
`CN(c1ccc(Br)cc1)S(=O)(=O)c1ccc(OC(=O)C(C)(C)C)cc1` [Example 1, p-[N-(p-bromophenyl)-N-methylsulfamoyl] phenyl ester of pivalic]: the IC50 turned out to be 31 nM.
The compound `CC(C)(C)C(=O)Oc1ccc(S(=O)(=O)NCCc2ccccc2)cc1` [4(5), p-(N-phenethylsulfamoyl)phenyl ester of pivalic acid] had an IC50 of 72 nM.
The result for `CC(C)(C)C(=O)Oc1ccc(S(=O)(=O)NC2CCCCC2)cc1` [1(3), p-(N-cyclohexylsulfamoyl)phenyl ester of pivalic acid] reads 42 nM.
Under `CC(C)(C)C(=O)Oc1ccc(S(=O)(=O)Nc2ccc(Cl)cc2)cc1` [1(8), p-[N-(4-chlorophenyl)sulfamoyl] phenyl ester of pivalic acid] stands 30 nM.
Consider `CSc1ccc(NS(=O)(=O)c2ccc(OC(=O)C(C)(C)C)cc2)c(C(=O)NCC(=O)O)c1` [2(80), N-[5-methylthio-2-(p-pivaloyoxy-benzene)sulfonylaminobenzoyl] glycine], for which the concentration for half-maximal inhibition (IC50) was 21 nM.
Regarding `Cc1cc(S(=O)(=O)Nc2cccc3c2OC(C(=O)O)CO3)ccc1OC(=O)C(C)(C)C` (stereo not shown) [2(49), 2-methyl-4-[N-(1,4-dioxa-2-carboxy-8-yl-naphthalene)sulfamoyl]phenyl ester of pivalic], the half-inhibitory concentration (IC50) was 150 nM.
`CC(C)(C)C(=O)Oc1ccc(S(=O)(=O)Nc2ccccc2C(=O)O)cc1` [5(3), p-[N-(o-carboxyphenyl)sulfamoyl] phenyl ester of pivalic acid] yielded a 50% inhibitory concentration (IC50) of 23 nM.
For `Cc1cc(S(=O)(=O)Nc2ccccc2C(=O)N2CCC[C@H]2C(=O)O)ccc1OC(=O)C(C)(C)C` [2(62), 2-methyl-4-[N-(2-prolylcarbonylphenyl)sulfamoyl] phenyl ester of pivalic acid], the 50% inhibitory concentration (IC50) stood at 690 nM.
In turn, `Cc1cc(S(=O)(=O)Nc2ccccc2C(=O)N[C@@H](CCCCN)C(=O)O)ccc1OC(=O)C(C)(C)C` [2(69), N-[o-(3-methyl-4-pivaloyloxybenzene)sulfonylaminobenzoyl]-L-lysine. hydrochloride] came in with an IC50 of 520 nM.
As to `CC(C)(C)C(=O)Oc1ccc(S(=O)(=O)Nc2ccccn2)cc1` [1(14), p-[N-(α-pyridyl)sulfamoyl]phen-yl ester of pivalic acid], the IC50 was found to be 190 nM.
`CC(=O)Oc1ccc(N(S(=O)(=O)c2ccc(OC(=O)C(C)(C)C)cc2)S(=O)(=O)c2ccc(OC(=O)C(C)(C)C)cc2)cc1` [1(15)]: the IC50 is 48 nM.
In the case of `Cc1cc(S(=O)(=O)Nc2ccccc2C(=O)N[C@@H](Cc2ccccc2)C(=O)O)ccc1OC(=O)C(C)(C)C` [2(67), N-[o-(3-methyl-4-pivaloyloxybenzene)sulfonylaminobenzoyl]-L-phenylalanine], 410 nM corresponded to half-maximal inhibition (IC50).
`CCN(CC)C(=O)COC(=O)c1ccccc1NS(=O)(=O)c1ccc(OC(=O)C(C)(C)C)c(C)c1` [2(38), 2-methyl-4-[N-(o-(N,N-diethyl-carbamoylmethoxycarbonyl)phehyl)sulfamoyl]phenyl ester of pivalic acid] registered a half-inhibitory concentration (IC50) of 72 nM.
Under `CC(C)(C)C(=O)Oc1ccc(S(N)(=O)=O)cc1` [1(2), p-sulfamoylphenyl ester of pivalic acid] stands 770 nM; under `CC(C)(C)NS(=O)(=O)c1ccc(OC(=O)C(C)(C)C)cc1` [2(5), p-(N-tert-butylsulfamoyl)phenyl ester of pivalic acid], 53 nM.
Under `CSCCC(NC(=O)c1ccccc1NS(=O)(=O)c1ccc(OC(=O)C(C)(C)C)c(C)c1)C(=O)O` (racemic) [2(68), N-[o-(3-methyl-4-pivaloyloxybenzene)sulfonylaminobenzoyl]-dl-methionine] stands 200 nM; under `CCCSc1ccc(NS(=O)(=O)c2ccc(OC(=O)C(C)(C)C)cc2)c(C(=O)NCC(=O)O)c1` [2(87), N-[2-(p-pivaloyloxybenzene)sulfonylamino-5-propylthiobenzoyl] glycine], 24 nM.
